Source: the NIST ThermoML archive (doi:10.1021/acs.jced.6b00526)

Assay: xn = mol fraction of the nth substance listed
Conditions: 100 kPa, Liquid; for mass density: Vibrating tube method; for viscosity: Falling or rolling sphere viscometry

OCCCO [propan-1,3-diol] + O
Conditions | mass density, 288.15 K [kg/m3] | mass density, 293.15 K [kg/m3] | mass density, 298.15 K [kg/m3] | mass density, 303.15 K [kg/m3] | mass density, 308.15 K [kg/m3] | mass density, 313.15 K [kg/m3] | mass density, 318.15 K [kg/m3] | viscosity, 293.15 K [mPa·s] | viscosity, 298.15 K [mPa·s] | viscosity, 303.15 K [mPa·s]
x2 = 0 | 1056.2 | 1053.2 | 1049.9 | 1046.7 | 1043.5 | 1040.4 | 1037.9 | 51.55 | 40.8 | 32.74
x2 = 0.0749 | – | – | – | – | – | – | – | 46.34 | 36.93 | 29.67
x2 = 0.1625 | 1056.2 | 1053.1 | 1049.7 | 1046.4 | 1043.1 | 1039.9 | 1037.4 | 40.76 | 32.58 | 26.38
x2 = 0.1737 | 1056.2 | 1053.1 | 1049.7 | 1046.4 | 1043.1 | 1040 | 1037.4 | – | – | –
x2 = 0.2386 | 1056.4 | 1053.3 | 1049.9 | 1046.6 | 1043.2 | 1040.1 | 1037.5 | – | – | –
x2 = 0.239 | – | – | – | – | – | – | – | 35.86 | 29.01 | 23.45
x2 = 0.2519 | 1056.5 | 1053.4 | 1049.9 | 1046.6 | 1043.3 | 1040.1 | 1037.5 | – | – | –
x2 = 0.3216 | 1056.6 | 1053.5 | 1050.1 | 1046.8 | 1043.5 | 1040.2 | 1037.6 | – | – | –
x2 = 0.3361 | – | – | – | – | – | – | – | 29.72 | 24.27 | 19.97
x2 = 0.3669 | 1056.4 | 1053.3 | 1050 | 1046.7 | 1043.3 | 1040.1 | 1037.5 | – | – | –
x2 = 0.4223 | – | – | – | – | – | – | – | 24.46 | 20.06 | 16.66
x2 = 0.4238 | 1056 | 1053 | 1049.6 | 1046.4 | 1043.1 | 1039.9 | 1037.3 | – | – | –
x2 = 0.4553 | 1055.6 | 1052.6 | 1049.3 | 1046.1 | 1042.8 | 1039.6 | 1037 | – | – | –
x2 = 0.5075 | 1054.7 | 1051.8 | 1048.5 | 1045.3 | 1042.1 | 1038.9 | 1036.2 | – | – | –
x2 = 0.5134 | – | – | – | – | – | – | – | 19.25 | 15.64 | 13.18
x2 = 0.5501 | 1053.7 | 1050.8 | 1047.6 | 1044.4 | 1041.2 | 1038 | 1035.4 | – | – | –
x2 = 0.6009 | 1052.1 | 1049.2 | 1046.1 | 1042.9 | 1039.7 | 1036.5 | 1033.9 | – | – | –
x2 = 0.6309 | – | – | – | – | – | – | – | 13.16 | 10.59 | 8.95
x2 = 0.653 | 1049.9 | 1047.1 | 1043.9 | 1040.8 | 1037.6 | 1034.4 | 1031.8 | – | – | –
x2 = 0.7146 | 1046.3 | 1043.5 | 1040.4 | 1037.2 | 1034 | 1030.9 | 1028.4 | – | – | –
x2 = 0.7446 | – | – | – | – | – | – | – | 7.99 | 6.43 | 5.46
x2 = 0.7532 | 1043.2 | 1040.5 | 1037.4 | 1034.3 | 1031.1 | 1028.1 | 1025.5 | – | – | –
x2 = 0.804 | 1038.3 | 1035.5 | 1032.6 | 1029.6 | 1026.6 | 1023.5 | 1021.1 | – | – | –
x2 = 0.8508 | 1032.1 | 1029.6 | 1026.9 | 1024.1 | 1021.3 | 1018.4 | 1016.1 | – | – | –
x2 = 0.872 | – | – | – | – | – | – | – | 3.72 | 3.13 | 2.78
x2 = 0.9021 | 1023.5 | 1021.3 | 1018.9 | 1016.6 | 1014 | 1011.4 | 1009.2 | – | – | –
